Target: T1, human mGluR5d (Homo sapiens, UniProt P41594)
T1 construct: expressed in transfected cells; host or cells: GHEK (HEK cells expressing a glutamate transporter) for the IP3 assay
Assay: Functional assessment of mGluR5 antagonism in cell lines expressing mGluR5d (FLIPR calcium mobilization / IP3 turnover; assay behind the values not specified)
Assay type: cell-based
Settings: cells expressing human mGluR5d; FLIPR or IP3 assay not specified
Excerpt: The pharmacological properties of the compounds of the invention can be analyzed using standard assays for functional activity. Examples of glutamate receptor assays are well known in the art as described in for example Aramori et al., Neuron 8:757 (1992), Tanabe et al., Neuron 8:169 (1992), Miller et al., J. Neuroscience 15: 6103 (1995), Balazs, et al., J. Neurochemistry 69:151 (1997). The methodology described in these publications is incorporated herein by reference. Conveniently, the compounds of the invention can be studied by means of an assay that measures the mobilization of intracellular calcium, [Ca^2+]i in cells expressing mGluR5.
Intracellular calcium mobilization was measured by detecting changes in fluorescence of cells loaded with the fluorescent indicator fluo-3. Fluorescent signals were measured using the FLIPR system (Molecular Devices). […]
FLIPR experiments were done using a laser setting of 0.800 W and a 0.4 second CCD camera shutter speed. […] After each addition of the compound, the fluorescence signal was sampled 50 times at 1 second intervals followed by 3 samples at 5 second intervals. Responses were measured as the peak height of the response within the sample period. […]
We have validated a secondary functional assay for mGluR5d based on Inositol Phosphate (IP3) turnover. IP3 accumulation is measured as an index of receptor mediated phospholipase C turnover. […]

T1 sequence (P41594 21-942 isoform P41594-3 limits assumed): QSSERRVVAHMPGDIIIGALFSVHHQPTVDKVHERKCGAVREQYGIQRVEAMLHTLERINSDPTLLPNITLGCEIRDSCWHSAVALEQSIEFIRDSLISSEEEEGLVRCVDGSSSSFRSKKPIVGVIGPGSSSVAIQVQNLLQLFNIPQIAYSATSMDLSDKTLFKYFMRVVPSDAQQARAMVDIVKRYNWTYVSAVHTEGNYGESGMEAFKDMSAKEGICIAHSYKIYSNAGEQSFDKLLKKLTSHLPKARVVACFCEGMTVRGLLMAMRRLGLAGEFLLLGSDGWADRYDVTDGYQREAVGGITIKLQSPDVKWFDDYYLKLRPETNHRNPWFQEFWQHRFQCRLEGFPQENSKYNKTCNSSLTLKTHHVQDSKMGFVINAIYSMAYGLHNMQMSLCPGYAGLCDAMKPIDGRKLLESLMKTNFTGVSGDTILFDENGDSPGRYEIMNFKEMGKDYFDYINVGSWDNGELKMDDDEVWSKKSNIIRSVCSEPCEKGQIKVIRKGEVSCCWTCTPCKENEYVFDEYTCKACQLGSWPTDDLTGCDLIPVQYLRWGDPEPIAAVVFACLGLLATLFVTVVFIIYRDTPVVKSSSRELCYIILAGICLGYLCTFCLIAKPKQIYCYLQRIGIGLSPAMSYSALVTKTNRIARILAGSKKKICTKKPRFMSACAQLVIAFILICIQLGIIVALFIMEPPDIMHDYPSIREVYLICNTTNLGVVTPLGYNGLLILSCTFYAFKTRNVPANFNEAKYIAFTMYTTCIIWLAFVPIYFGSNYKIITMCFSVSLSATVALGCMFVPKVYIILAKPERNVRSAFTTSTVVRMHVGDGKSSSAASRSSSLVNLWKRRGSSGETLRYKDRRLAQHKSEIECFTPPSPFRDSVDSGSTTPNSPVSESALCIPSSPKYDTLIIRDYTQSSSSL

| IC50 [nM] | Compound |
| --- | --- |
| 1080 | CC(c1cn(-c2cccc(Cl)c2)nn1)N1CCN(c2ncccc2C#N)CC1 (centres unmarked) [Example 15.16, 2-(4-{1-[1-(3-chlorophenyl)-1H-1,2,3-triazol-4-yl]ethyl}piperazin-1-yl)nicotinonitrile] |
| 159 | CC(c1cn(-c2cccc(Cl)c2)nn1)N1CCN(c2ccc(C#N)cn2)CC1 (centres unmarked) [Example 15.17, 6-(4-{1-[1-(3-chlorophenyl)-1H-1,2,3-triazol-4-yl]ethyl}piperazin-1-yl)nicotinonitrile] |

Reference: US20080312246A1, “Substituted Piperazines as Metabotropic Glutamate Receptor Antagonists” (AstraZeneca AB, priority 2005, published 2008)
